Reference: patent US20220347146A1, “CANCER TREATMENT” (AXELIA ONCOLOGY PTY LTD, priority 2019, published 2022)

What was measured:
EMT6.5 cells = assay: EMT6.5 orthotopic mammary tumour model, i.v. therapy; format: in vivo, mouse
Description: Balb/c mice (n=12) were implanted orthotopically with 100,000 EMT6.5 cells into the 4th inguinal mammary gland and established tumours monitored by calliper measurement. When tumours were ˜200 mm^3 the mice were randomized to either one of two therapeutic arms (n=6 per arm); 1) compound A108 (10 μg, per mouse), or 2) Vehicle (saline) control. Therapy was administered intravenously to tumour bearing mice in three doses, three days apart. All mice completed therapy and were culled 21 days after tumour implant. The primary tumours, lungs and spleens were recovered and weighed. Lungs were analysed by real time quantitative PCR (RTQ-PCR) for evaluation of metastatic burden. Body weight was measured throughout the experiment.

[1] = cited from earlier work; for IL-10 and Tregs / anti-tumour activity: subcutaneous or intraperitoneal administration (Yamazaki et al. 2011)

severe weight loss (EMT6.5 cells; 10 μg per mouse i.v., three doses)	Compound	body weight on initial therapy (EMT6.5 cells; 10 μg per mouse i.v., three doses three days apart, data not shown)	reversibility of weight loss (EMT6.5 cells; following cessation of therapy)	IL-10 and Tregs [1]	anti-tumour activity [1]	myeloid derived suppressor cells ([1]; intravenous administration (Maruyama et al. 2015))
No severe weight loss was observed	CCCCCCCCCCCCCCCC(=O)OC[C@H](CSC[C@H](N)C(=O)N[C@@H](CO)C(=O)NCCOCCOCCOCCOCCOCCOCCOCCOCCOCCOCCOCCOCCOCCOCCOCCOCCOCCOCCOCCOCCOCCOCCOCCOCCOCCOCCOCCOCCC(=O)NCC(N)=O)OC(=O)CCCCCCCCCCCCCCC [A108]	induced an acute weight loss	reversible following cessation of therapy	–	–	–
–	MALP2	–	–	induce IL-10 and Tregs	no anti-tumour activity	–
–	Pam2CysSK4	–	–	induce IL-10 and Tregs	no anti-tumour activity	promotes myeloid derived suppressor cells
